Test results: article PMC8909834, “An Orally Bioavailable and Highly Efficacious Inhibitor of CDK9/FLT3 for the Treatment of Acute Myeloid Leukemia” (Cancers, 2022)

Tests used:
Assay in all cases: Kinase Hotspot radiolabel assay
Format in all cases: biochemical
Settings in all cases: read-out: % Residual Activity
ABL2/ARG = target: T1, ABL2/ARG (Homo sapiens, UniProt P42684)
T1 construct: purchased Reaction Biology Corporation (Kinase HotSpot)
How it was run: (§1)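 Hotspot radioactive kinase assay, compound fixed at 1 µM, broad 369-kinase selectivity screen.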

ALK6/BMPR1B = target: T2, ALK6/BMPR1B (Homo sapiens, UniProt O00238)
T2 construct: purchased Reaction Biology Corporation (Kinase HotSpot)
How it was run: as §1

c-MER = target: T3, c-MER (Homo sapiens, UniProt Q12866)
T3 construct: purchased Reaction Biology Corporation (Kinase HotSpot)
How it was run: as §1

PLK3 = target: T4, PLK3 (Homo sapiens, UniProt Q9H4B4)
T4 construct: purchased Reaction Biology Corporation (Kinase HotSpot)
How it was run: as §1

PKCnu/PRKD3 = target: T5, PKCnu/PRKD3 (Homo sapiens, UniProt O94806)
T5 construct: purchased Reaction Biology Corporation (Kinase HotSpot)
How it was run: as §1

ERK5/MAPK7 = target: T6, ERK5/MAPK7 (Homo sapiens, UniProt Q13164)
T6 construct: purchased Reaction Biology Corporation (Kinase HotSpot)
How it was run: as §1

DMPK2 = target: T7, DMPK2 (Homo sapiens, UniProt Q6DT37)
T7 construct: purchased Reaction Biology Corporation (Kinase HotSpot)
How it was run: as §1

JAK2 = target: T8, JAK2 (Homo sapiens, UniProt O60674)
T8 construct: purchased Reaction Biology Corporation (Kinase HotSpot)
How it was run: as §1

HIPK1 = target: T9, HIPK1 (Homo sapiens, UniProt Q86Z02)
T9 construct: purchased Reaction Biology Corporation (Kinase HotSpot)
How it was run: as §1

CK1epsilon = target: T10, CK1epsilon (Homo sapiens, UniProt P49674)
T10 construct: purchased Reaction Biology Corporation (Kinase HotSpot)
How it was run: as §1

TYRO3/SKY = target: T11, TYRO3/SKY (Homo sapiens, UniProt Q06418)
T11 construct: purchased Reaction Biology Corporation (Kinase HotSpot)
How it was run: as §1

ZIPK/DAPK3 = target: T12, ZIPK/DAPK3 (Homo sapiens, UniProt O43293)
T12 construct: purchased Reaction Biology Corporation (Kinase HotSpot)
How it was run: as §1

TGFBR2 = target: T13, TGFBR2 (Homo sapiens, UniProt P37173)
T13 construct: purchased Reaction Biology Corporation (Kinase HotSpot)
How it was run: as §1

EPHB3 = target: T14, EPHB3 (Homo sapiens, UniProt P54753)
T14 construct: purchased Reaction Biology Corporation (Kinase HotSpot)
How it was run: as §1

CK1d = target: T15, CK1d (Homo sapiens, UniProt P48730)
T15 construct: purchased Reaction Biology Corporation (Kinase HotSpot)
How it was run: as §1

PKCd = target: T16, PKCd (Homo sapiens, UniProt Q05655)
T16 construct: purchased Reaction Biology Corporation (Kinase HotSpot)
How it was run: as §1

AKT3 = target: T17, AKT3 (Homo sapiens, UniProt Q9Y243)
T17 construct: purchased Reaction Biology Corporation (Kinase HotSpot)
How it was run: as §1

PRKX = target: T18, PRKX (Homo sapiens, UniProt P51817)
T18 construct: purchased Reaction Biology Corporation (Kinase HotSpot)
How it was run: as §1

MAPKAPK2 = target: T19, MAPKAPK2 (Homo sapiens, UniProt P49137)
T19 construct: purchased Reaction Biology Corporation (Kinase HotSpot)
How it was run: as §1

VRK2 = target: T20, VRK2 (Homo sapiens, UniProt Q86Y07)
T20 construct: purchased Reaction Biology Corporation (Kinase HotSpot)
How it was run: as §1

MYLK4 = target: T21, MYLK4 (Homo sapiens, UniProt Q86YV6)
T21 construct: purchased Reaction Biology Corporation (Kinase HotSpot)
How it was run: as §1

TRKA = target: T22, TRKA (Homo sapiens, UniProt P04629)
T22 construct: purchased Reaction Biology Corporation (Kinase HotSpot)
How it was run: as §1

MSK1/RPS6KA5 = target: T23, MSK1/RPS6KA5 (Homo sapiens, UniProt O75582)
T23 construct: purchased Reaction Biology Corporation (Kinase HotSpot)
How it was run: as §1

BRK = target: T24, BRK (Homo sapiens, UniProt Q13882)
T24 construct: purchased Reaction Biology Corporation (Kinase HotSpot)
How it was run: as §1

BRSK2 = target: T25, BRSK2 (Homo sapiens, UniProt Q8IWQ3)
T25 construct: purchased Reaction Biology Corporation (Kinase HotSpot)
How it was run: as §1

FYN = target: T26, FYN (Homo sapiens, UniProt P06241)
T26 construct: purchased Reaction Biology Corporation (Kinase HotSpot)
How it was run: as §1

PKG1b = target: T27, PKG1b (Homo sapiens, UniProt Q13976)
T27 construct: purchased Reaction Biology Corporation (Kinase HotSpot)
How it was run: as §1

IRR/INSRR = target: T28, IRR/INSRR (Homo sapiens, UniProt P14616)
T28 construct: purchased Reaction Biology Corporation (Kinase HotSpot)
How it was run: as §1

BRSK1 = target: T29, BRSK1 (Homo sapiens, UniProt Q8TDC3)
T29 construct: purchased Reaction Biology Corporation (Kinase HotSpot)
How it was run: as §1

EPHA6 = target: T30, EPHA6 (Homo sapiens, UniProt Q9UF33)
T30 construct: purchased Reaction Biology Corporation (Kinase HotSpot)
How it was run: as §1

T18 sequence (P51817 whole entry): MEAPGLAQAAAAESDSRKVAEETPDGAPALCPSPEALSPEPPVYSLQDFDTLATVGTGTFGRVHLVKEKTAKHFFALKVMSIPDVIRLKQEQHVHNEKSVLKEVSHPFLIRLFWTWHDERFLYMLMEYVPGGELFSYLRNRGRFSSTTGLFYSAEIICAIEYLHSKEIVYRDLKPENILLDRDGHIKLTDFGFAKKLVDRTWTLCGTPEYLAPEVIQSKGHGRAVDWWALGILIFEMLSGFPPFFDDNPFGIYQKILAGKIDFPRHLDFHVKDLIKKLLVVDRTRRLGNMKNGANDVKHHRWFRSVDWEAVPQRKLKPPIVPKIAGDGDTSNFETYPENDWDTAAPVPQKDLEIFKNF
T12 sequence (O43293 whole entry): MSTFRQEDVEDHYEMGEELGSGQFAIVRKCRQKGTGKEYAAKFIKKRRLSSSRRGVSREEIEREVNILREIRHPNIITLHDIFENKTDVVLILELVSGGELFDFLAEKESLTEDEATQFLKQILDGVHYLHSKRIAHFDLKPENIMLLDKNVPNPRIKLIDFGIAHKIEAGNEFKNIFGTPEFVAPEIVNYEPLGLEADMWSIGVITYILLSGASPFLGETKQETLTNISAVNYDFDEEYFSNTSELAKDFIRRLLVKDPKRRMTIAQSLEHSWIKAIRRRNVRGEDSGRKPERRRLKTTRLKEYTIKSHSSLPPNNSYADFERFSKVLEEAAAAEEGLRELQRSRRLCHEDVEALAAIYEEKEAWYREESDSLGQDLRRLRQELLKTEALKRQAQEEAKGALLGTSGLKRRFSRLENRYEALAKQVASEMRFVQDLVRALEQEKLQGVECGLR
T11 sequence (Q06418 41-890): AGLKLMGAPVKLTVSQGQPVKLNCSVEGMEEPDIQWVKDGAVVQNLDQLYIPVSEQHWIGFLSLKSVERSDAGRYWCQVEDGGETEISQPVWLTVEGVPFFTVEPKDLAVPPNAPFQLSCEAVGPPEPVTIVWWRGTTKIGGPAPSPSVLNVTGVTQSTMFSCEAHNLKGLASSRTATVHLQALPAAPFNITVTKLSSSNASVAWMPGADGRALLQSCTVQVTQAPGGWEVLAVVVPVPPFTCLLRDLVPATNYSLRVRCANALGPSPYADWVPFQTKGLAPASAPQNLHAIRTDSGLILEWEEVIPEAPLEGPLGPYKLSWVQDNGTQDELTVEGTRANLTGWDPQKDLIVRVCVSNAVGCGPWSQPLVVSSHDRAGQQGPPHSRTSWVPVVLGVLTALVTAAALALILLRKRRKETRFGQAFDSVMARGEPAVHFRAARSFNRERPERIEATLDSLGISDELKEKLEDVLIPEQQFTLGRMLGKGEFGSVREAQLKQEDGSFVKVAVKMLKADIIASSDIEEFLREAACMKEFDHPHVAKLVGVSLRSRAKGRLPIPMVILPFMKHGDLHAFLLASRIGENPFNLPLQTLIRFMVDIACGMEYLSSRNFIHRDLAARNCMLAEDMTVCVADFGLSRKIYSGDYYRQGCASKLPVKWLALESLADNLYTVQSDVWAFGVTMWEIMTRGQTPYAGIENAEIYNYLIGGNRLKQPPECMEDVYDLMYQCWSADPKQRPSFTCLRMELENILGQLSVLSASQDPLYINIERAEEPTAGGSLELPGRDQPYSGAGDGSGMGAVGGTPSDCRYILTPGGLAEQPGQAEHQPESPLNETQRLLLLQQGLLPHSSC
T25 sequence (Q8IWQ3 whole entry): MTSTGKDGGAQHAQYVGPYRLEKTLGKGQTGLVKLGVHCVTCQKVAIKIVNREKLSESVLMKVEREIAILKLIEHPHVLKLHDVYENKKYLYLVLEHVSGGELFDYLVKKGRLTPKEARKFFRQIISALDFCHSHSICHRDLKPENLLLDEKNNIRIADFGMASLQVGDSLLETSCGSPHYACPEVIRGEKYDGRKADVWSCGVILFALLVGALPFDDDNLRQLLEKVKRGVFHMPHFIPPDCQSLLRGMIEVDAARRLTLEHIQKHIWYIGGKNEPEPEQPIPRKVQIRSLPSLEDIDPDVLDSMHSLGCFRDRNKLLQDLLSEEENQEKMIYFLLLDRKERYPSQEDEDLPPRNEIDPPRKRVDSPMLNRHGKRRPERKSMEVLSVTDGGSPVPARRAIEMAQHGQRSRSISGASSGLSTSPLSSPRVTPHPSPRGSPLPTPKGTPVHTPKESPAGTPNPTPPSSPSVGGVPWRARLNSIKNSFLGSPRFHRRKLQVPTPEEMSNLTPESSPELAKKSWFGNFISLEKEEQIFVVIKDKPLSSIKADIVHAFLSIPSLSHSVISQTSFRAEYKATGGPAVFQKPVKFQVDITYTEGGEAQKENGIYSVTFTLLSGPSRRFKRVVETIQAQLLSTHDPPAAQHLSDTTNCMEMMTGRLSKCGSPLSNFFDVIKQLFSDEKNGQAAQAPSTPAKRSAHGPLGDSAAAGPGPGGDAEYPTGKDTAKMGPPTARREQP
T19 sequence (P49137 whole entry): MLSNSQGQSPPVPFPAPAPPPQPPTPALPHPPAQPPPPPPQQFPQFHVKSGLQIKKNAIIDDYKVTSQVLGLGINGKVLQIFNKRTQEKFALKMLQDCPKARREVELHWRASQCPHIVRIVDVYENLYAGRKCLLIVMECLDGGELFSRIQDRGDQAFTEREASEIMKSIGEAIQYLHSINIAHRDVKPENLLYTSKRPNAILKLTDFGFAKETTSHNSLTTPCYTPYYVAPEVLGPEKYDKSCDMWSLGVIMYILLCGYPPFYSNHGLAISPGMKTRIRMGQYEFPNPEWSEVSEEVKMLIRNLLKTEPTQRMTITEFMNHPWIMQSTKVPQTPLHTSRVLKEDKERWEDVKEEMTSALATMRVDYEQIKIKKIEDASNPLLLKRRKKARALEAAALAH
T8 sequence (O60674 whole entry): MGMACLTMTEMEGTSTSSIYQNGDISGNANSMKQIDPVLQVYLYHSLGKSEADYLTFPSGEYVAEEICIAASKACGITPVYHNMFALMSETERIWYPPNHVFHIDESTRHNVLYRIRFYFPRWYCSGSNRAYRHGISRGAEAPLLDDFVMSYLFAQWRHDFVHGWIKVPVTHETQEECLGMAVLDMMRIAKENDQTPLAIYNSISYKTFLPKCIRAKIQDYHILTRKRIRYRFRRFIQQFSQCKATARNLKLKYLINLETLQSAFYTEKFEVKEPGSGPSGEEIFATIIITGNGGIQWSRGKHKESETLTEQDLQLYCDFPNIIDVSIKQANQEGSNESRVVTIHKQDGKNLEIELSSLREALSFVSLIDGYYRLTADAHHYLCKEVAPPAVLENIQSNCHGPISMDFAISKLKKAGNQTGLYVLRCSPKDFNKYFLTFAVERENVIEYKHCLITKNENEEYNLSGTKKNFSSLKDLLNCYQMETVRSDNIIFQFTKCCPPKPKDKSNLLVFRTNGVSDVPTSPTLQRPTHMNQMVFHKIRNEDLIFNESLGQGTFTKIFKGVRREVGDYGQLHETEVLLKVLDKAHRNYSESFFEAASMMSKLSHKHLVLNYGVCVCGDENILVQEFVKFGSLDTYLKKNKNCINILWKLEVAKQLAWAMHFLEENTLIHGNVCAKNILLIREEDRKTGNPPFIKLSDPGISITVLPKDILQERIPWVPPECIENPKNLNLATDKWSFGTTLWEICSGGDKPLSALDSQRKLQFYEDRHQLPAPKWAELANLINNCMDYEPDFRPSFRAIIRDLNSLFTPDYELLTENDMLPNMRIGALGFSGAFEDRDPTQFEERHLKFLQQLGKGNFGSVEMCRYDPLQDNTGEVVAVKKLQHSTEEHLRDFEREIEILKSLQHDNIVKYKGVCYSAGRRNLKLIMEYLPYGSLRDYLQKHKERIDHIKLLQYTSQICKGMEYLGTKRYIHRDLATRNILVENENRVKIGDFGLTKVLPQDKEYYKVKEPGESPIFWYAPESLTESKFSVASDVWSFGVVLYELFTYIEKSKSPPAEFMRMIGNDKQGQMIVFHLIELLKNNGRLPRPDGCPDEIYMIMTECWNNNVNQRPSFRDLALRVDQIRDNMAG
T23 sequence (O75582 whole entry): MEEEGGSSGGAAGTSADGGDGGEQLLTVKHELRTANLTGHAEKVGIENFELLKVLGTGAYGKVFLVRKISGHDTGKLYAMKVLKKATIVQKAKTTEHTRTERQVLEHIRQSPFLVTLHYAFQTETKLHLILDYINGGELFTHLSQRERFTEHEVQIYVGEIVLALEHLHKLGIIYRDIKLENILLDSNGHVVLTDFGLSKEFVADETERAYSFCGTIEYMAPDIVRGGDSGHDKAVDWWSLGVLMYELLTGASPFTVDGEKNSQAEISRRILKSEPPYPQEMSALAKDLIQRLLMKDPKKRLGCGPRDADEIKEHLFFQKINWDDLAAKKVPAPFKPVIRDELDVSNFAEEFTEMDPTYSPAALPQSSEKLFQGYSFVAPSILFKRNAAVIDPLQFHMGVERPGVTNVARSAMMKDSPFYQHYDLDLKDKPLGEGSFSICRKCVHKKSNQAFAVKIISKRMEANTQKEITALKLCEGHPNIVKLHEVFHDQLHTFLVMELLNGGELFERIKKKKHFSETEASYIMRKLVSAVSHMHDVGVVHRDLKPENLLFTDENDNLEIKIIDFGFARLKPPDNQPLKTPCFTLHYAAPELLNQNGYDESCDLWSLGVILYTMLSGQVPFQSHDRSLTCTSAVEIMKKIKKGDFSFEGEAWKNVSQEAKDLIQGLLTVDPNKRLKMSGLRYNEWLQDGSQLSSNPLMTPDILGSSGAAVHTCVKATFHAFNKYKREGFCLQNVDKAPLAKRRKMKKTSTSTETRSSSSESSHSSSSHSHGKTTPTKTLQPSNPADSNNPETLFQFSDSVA

## Cc1cnc(N[C@H]2CC[C@H](N)CC2)nc1-c1cnc2ccc(-c3ccccc3)cn12 [CDDD11-8]
ABL2/ARG
  remaining activity at 1 µM: 67.5%
ALK6/BMPR1B
  remaining activity at 1 µM: 105%
c-MER
  remaining activity at 1 µM: 52.3%
PLK3
  remaining activity at 1 µM: 109%
PKCnu/PRKD3
  remaining activity at 1 µM: 35.1%
ERK5/MAPK7
  remaining activity at 1 µM: 93.3%
DMPK2
  remaining activity at 1 µM: 26.3%
JAK2
  remaining activity at 1 µM: 70%
HIPK1
  remaining activity at 1 µM: 105%
CK1epsilon
  remaining activity at 1 µM: 37.1%
TYRO3/SKY
  remaining activity at 1 µM: 82.2%
ZIPK/DAPK3
  remaining activity at 1 µM: 102%
TGFBR2
  remaining activity at 1 µM: 95.6%
EPHB3
  remaining activity at 1 µM: 92.7%
CK1d
  remaining activity at 1 µM: 17.6%
PKCd
  remaining activity at 1 µM: 47.6%
AKT3
  remaining activity at 1 µM: 77.2%
PRKX
  remaining activity at 1 µM: 77.4%
MAPKAPK2
  remaining activity at 1 µM: 106%
VRK2
  remaining activity at 1 µM: 35.7%
MYLK4
  remaining activity at 1 µM: 11.5%
TRKA
  remaining activity at 1 µM: 14.2%
MSK1/RPS6KA5
  remaining activity at 1 µM: 61.6%
BRK
  remaining activity at 1 µM: 87.4%
BRSK2
  remaining activity at 1 µM: 96.5%
FYN
  remaining activity at 1 µM: 63.2%
PKG1b
  remaining activity at 1 µM: 77.5%
IRR/INSRR
  remaining activity at 1 µM: 101%
BRSK1
  remaining activity at 1 µM: 97.4%
EPHA6
  remaining activity at 1 µM: 88.4%
